Data published in US12391683B2, “Therapeutic compounds and methods” (Actio Biosciences, Inc., priority 2022, dated 2025).

Legend:
[1] = molecular target: T1, TRPM5 channels (Homo sapiens, UniProt Q9NZQ8); test: TRP Family FLIPR Assay, TRPM5; type: cell-based; conditions: CHO cells
T1 construct: expressed in transfected cells; host or cells: CHO
T1 sequence (Q9NZQ8 1-1165): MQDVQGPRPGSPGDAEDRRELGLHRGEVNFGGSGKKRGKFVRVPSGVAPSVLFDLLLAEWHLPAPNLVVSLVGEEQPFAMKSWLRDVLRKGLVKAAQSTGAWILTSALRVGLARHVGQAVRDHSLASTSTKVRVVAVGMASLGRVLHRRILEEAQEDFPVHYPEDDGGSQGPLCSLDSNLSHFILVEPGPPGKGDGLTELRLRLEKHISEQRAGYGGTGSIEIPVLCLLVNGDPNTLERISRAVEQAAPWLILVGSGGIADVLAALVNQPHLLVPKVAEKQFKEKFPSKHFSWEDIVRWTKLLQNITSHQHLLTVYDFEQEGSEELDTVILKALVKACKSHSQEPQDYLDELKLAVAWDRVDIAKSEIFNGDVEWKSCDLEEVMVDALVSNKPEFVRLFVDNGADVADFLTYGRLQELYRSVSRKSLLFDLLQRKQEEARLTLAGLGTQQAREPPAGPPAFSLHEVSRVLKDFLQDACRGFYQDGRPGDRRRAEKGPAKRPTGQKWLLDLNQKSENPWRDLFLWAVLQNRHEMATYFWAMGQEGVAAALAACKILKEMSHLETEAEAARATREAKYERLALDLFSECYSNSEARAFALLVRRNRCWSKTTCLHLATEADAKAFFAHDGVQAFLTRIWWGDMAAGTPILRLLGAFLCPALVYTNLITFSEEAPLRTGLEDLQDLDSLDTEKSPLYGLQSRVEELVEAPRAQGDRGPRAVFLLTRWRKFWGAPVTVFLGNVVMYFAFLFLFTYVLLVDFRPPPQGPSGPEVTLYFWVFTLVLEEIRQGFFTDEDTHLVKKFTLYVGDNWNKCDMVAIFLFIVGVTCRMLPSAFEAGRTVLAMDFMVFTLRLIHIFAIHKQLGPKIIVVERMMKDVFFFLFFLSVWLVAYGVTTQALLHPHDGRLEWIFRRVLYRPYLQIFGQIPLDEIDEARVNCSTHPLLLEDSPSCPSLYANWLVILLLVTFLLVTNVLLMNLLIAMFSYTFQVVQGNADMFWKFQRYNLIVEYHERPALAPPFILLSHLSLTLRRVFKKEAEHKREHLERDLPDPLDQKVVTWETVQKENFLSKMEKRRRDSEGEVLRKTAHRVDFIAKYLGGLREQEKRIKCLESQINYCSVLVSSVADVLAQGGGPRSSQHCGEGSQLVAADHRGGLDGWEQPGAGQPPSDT
Experimental: (§1) The compound of Example 5 was tested for selectivity against a panel of Human TRP family ion channels in a TRP Family FLIPR Assay as described below. • 1. TRPC3 channels (human TRPC3 variant 1 gene, expressed in HEK293 cells). • 2. TRPC4 channels (human TRPC4 gene, expressed in HEK293 cells). • 3. TRPC5 channels (human TRPC5 gene, expressed in HEK293 cells). • 4. TRPC6 channels (human TRPC6 gene, expressed in HEK293 cells). • 5. TRPM2 channels (human TRPM2 gene, transiently expressed in HEK293 cells). • 6. TRPM3 channels (human TRPM3 gene, transiently expressed in HEK293 cells). • 7. TRPM4 channels (human TRPM4 gene, expressed in CHO cells). • 8. […]
(§2) Data acquisition was performed via the FLIPR Control software supplied with the FLIPR System (MDS-AT) and data was analyzed using Microsoft Excel (Microsoft Corp., Redmond, WA) or GraphPad Prism. […]
(§3) [formula] where Base is the response at low concentrations of test article, Max is the maximum response at high concentrations, xhalf the EC50, or IC50, the concentration of test article producing either half-maximal activation or inhibition, and rate is the Hill coefficient. […] No assumptions about the fit parameters was made; the fit parameters were determined by the algorithm.
(§4) The effect of each test article was evaluated at eight (8) concentrations: 0.003, 0.01, 0.03, 0.1, 0.3, 1, 3 and 10 μM, n≤4 wells/concentration). […]

[2] = molecular target: T2, TRPV1 channels (Homo sapiens, UniProt Q8NER1); test: TRP Family FLIPR Assay, TRPV1; type: cell-based; conditions: HEK293 cells
T2 construct: expressed in transfected cells; host or cells: HEK293
Experimental: as §1, §2, §3, §4

T2 sequence (Q8NER1 whole entry): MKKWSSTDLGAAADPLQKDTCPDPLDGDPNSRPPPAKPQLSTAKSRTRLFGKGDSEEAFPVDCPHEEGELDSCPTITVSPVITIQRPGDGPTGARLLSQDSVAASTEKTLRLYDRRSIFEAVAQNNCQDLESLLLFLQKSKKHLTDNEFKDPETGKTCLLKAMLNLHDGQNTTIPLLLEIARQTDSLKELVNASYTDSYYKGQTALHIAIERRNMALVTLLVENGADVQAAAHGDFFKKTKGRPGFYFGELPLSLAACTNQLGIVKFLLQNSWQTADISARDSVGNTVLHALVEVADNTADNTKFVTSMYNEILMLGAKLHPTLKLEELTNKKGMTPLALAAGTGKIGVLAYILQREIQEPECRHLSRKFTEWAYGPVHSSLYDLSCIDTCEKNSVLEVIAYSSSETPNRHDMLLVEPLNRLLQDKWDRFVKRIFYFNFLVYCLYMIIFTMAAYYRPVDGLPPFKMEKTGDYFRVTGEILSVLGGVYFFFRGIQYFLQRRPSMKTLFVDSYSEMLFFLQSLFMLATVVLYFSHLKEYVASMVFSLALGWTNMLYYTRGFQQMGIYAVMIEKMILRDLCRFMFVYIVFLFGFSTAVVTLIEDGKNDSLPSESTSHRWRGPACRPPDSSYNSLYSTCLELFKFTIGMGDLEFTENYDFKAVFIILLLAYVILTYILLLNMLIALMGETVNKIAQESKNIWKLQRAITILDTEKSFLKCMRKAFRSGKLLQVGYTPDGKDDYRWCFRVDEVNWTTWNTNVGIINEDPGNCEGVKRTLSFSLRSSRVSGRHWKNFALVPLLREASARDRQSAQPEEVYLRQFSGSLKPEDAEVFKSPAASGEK

CC(C)(O)c1cnc(N2C[C@@]3(CC[C@@H](F)[C@](C)(Cn4cnc5ccc(C#N)cc54)C3)OC2=O)cn1 (single isomer, unassigned) [Example 5]
> 10 µM: EC50 ([1]; agonist mode, vs EMAX of Mg-ATP 33.3 μM, read-out: EC50 hTRPM5) | IC50 ([1]; antagonist mode, activated with Mg-ATP 75 μM, 0.003-10 μM, read-out: IC50 hTRPM5) | EC50 ([2]; agonist mode, vs EMAX of capsaicin 1 μM, read-out: EC50 hTRPV1) | IC50 ([2]; antagonist mode, activated with capsaicin 0.1 μM, 0.003-10 μM, read-out: IC50 hTRPV1)
